# Patent US12194039B2, “Methods of treating heart failure by administering omecamtiv mecarbil” (Cytokinetics, Inc., priority 2020, dated 2025)
# “Also recorded” adds a separate entry of the source. Where two headings read alike, the source gives them in different places.
# Assays:
# [1] = tested on: patients with or without more advanced HF; format: in vivo, human; settings: for KCCQ total symptom score (TSS), increase: inpatient; for KCCQ total symptom score (TSS), increase / KCCQ total symptom score (TSS), decrease: vs placebo; for KCCQ total symptom score (TSS), decrease: outpatient
# Excerpt: Patients having more advanced heart failure (HF): In some aspects, provided is a method of treating a patient having more advanced HF by administering omecamtiv mecarbil as described herein. More advanced HF, also referred to as severe HF, refractory HF, or Stage D HF, can be determined based on a number of criteria recognized in the medical field. In some embodiments, more advanced HF refers to the published criteria from the 2018 ESC-HFA position statement (European journal of heart failure. 2018; 20:1505-1535). For the ESC-HFA criteria, patients were required to have all of 1) NYHA class III-IV symptoms, 2) a left ventricular ejection fraction 30%, 3) 2 or more hospitalizations for HF within the prior 12 months, and 4) evidence of severe functional impairment as defined by cardiopulmonary exercise testing or 6-minute walk test. In some embodiments, the hospitalization criteria is modified to one HF hospitalization within the prior 6 months In some embodiments, more advanced HF refers to patients having all of 1) NYHA class III-IV symptoms, 2) a left ventricular ejection fraction 30%, and 3) 1 or more hospitalizations for HF within the prior 6 months.
# Baseline characteristics for patients classified as more advanced HF compared to those without were evaluated using appropriate summary statistics. Outcomes for patients with or without more advanced HF were compared using Cox proportional hazards models and Kaplan-Meier curves. […] Absolute event rates were described using rate per 100 patient-years. As a sensitivity analysis, the event rates and treatment effect of omecamtiv mecarbil for patients was assessed by specific advanced HF criteria met, as well as the total number of criteria met. For quality-of-life data as assessed by the Kansas City Cardiomyopathy Questionnaire Total Symptom Score (KCCQ TSS), linear regression adjusted for baseline scores was used to compare treatment effects of omecamtiv mecarbil compared to placebo. Safety and tolerability data for patients with advanced HF vs. those without were summarized using descriptive statistics. P value ≤0.05 was considered statistically significant for all analyses.
# [2] = target: CYP3A4 (Homo sapiens, UniProt P08684); assay: Metabolism of OM by CYP enzymes; format: in vitro ADME; settings: result in words
# Sequence of CYP3A4 (P08684 whole entry): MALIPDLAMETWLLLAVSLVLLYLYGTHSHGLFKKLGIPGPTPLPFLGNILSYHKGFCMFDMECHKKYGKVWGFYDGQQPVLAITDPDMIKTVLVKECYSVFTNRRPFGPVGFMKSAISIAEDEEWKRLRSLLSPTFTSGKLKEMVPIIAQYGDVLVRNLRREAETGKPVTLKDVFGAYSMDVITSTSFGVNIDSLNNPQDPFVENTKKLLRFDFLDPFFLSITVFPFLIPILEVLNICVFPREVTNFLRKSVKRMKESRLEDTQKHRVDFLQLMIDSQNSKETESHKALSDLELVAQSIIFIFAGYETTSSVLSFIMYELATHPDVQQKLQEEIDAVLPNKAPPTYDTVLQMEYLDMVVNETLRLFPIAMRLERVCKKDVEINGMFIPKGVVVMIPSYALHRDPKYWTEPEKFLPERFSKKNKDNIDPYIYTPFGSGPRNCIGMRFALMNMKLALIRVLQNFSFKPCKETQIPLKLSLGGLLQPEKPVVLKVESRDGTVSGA
# Excerpt: (§1) Clearance of OM after oral administration was primarily through metabolism in the liver. […] Following oral administration of radiolabeled OM to healthy subjects, approximately 49% of the dose was excreted in urine (primarily as metabolites with 8% of parent compound recovered) and 38% in feces (primarily as unchanged drug).
# [3] = target: CYP2D6 (Homo sapiens, UniProt P10635); assay: Metabolism of OM by CYP enzymes; format: in vitro ADME; settings: result in words; listed as OM
# Sequence of CYP2D6 (P10635 whole entry): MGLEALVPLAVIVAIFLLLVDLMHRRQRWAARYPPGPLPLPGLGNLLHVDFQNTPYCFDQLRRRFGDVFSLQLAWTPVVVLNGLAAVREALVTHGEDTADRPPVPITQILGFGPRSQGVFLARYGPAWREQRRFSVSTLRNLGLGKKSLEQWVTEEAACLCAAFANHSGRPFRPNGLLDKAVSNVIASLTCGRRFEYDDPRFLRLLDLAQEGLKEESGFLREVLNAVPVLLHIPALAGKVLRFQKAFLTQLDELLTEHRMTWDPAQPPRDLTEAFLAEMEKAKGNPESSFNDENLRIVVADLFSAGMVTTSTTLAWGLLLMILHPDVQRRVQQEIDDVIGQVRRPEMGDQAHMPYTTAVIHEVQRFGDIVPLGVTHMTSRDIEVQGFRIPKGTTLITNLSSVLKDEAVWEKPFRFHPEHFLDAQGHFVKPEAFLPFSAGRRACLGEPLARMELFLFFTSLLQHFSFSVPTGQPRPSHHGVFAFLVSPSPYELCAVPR
# Excerpt: as §1
# [4] = Drug interactions: change in OM pharmacokinetics in the presence of co-administered drugs; format: in vivo, human
# [5] = Advanced HF, week 0 to 24, OM vs placebo
# [6] = Less Advanced Heart Failure, OM group
# [7] = Less Advanced Heart Failure, OM vs placebo
# [8] = More Advanced Heart Failure, OM group
# [9] = More Advanced Heart Failure, OM vs placebo
# [10] = CYP2D6 genotype: PM (N = 8) versus EM (N = 16)
# [11] = with P-gp inhibitor amiodarone 600 mg SD, OM 50 mg SD, vs OM alone
# [12] = with moderate CYP3A inhibitor diltiazem 240 mg QD × 8 days, OM 10 mg SD, vs OM alone
# [13] = with pH modifying agent omeprazole 40 mg QD × 6 days, OM 50 mg SD, vs OM alone
# [14] = with strong CYP3A and P-gp inhibitor ketoconazole 200 mg BID × 8 days, OM 10 mg SD, vs OM alone
smiles,measurement,setting,value
COC(=O)N1CCN(Cc2cccc(NC(=O)Nc3ccc(C)nc3)c2F)CC1 [omecamtiv mecarbil],Creatinine,"[1]; Advanced HF, OM group, week 24",1.37 ± 0.55 mg/dL
same,NT-proBNP,"[1]; Advanced HF, OM group, week 24","1837 [856, pg/ml"
same,Systolic BP,"[1]; Advanced HF, OM group, week 24",116.7 ± 17.3 mm Hg
same,NT-proBNP (Ratio),[1]; [5],0.86
same,Troponin I (Ratio),[1]; [5],1.30
same,All-cause Death (%),[1]; [6],(23%)
same,All-cause Death Rate,[1]; [6],12.4 per 100 patient years
same,All-cause Death n/N,[1]; [6],692/3014
same,HF Hosp as 1st Primary Event (%),[1]; [6],(24%)
same,HF Hosp as 1st Primary Event Rate,[1]; [6],15.0 per 100 patient years
same,HF Hosp as 1st Primary Event n/N,[1]; [6],722/3014
same,Heart Failure Hospitalization (%),[1]; [6],(25%)
same,Heart Failure Hospitalization Rate,[1]; [6],15.4 per 100 patient years
same,Heart Failure Hospitalization n/N,[1]; [6],746/3014
same,Primary Outcome (%),[1]; [6],(34%)
same,Primary Outcome Rate,[1]; [6],21.1 per 100 patient years
same,Primary Outcome n/N,[1]; [6],1013/3014
same,Urgent Outpatient Visit as 1st Primary Event (%),[1]; [6],(2%)
same,Urgent Outpatient Visit as 1st Primary Event Rate,[1]; [6],1.1 per 100 patient years
same,Urgent Outpatient Visit as 1st Primary Event n/N,[1]; [6],52/3014
same,All-cause Death ARR,[1]; [7],0.6 per 100 patient years
same,All-cause Death HR (95% CI),[1]; [7],"1.05 (0.94, 1.17);"
same,Heart Failure Hospitalization ARR,[1]; [7],−0.1 per 100 patient years
same,Heart Failure Hospitalization HR (95% CI),[1]; [7],"1.01 (0.91, 1.12);"
same,Primary Outcome ARR,[1]; [7],0.2 per 100 patient years
same,Primary Outcome HR (95% CI),[1]; [7],"0.99 (0.91, 1.08);"
same,All-cause Death (%),[1]; [8],(34%)
same,All-cause Death Rate,[1]; [8],20.1 per 100 patient years
same,All-cause Death n/N,[1]; [8],365/1081
same,HF Hosp as 1st Primary Event (%),[1]; [8],(35%)
same,HF Hosp as 1st Primary Event Rate,[1]; [8],25.9 per 100 patient years
same,HF Hosp as 1st Primary Event n/N,[1]; [8],385/1106
same,Heart Failure Hospitalization (%),[1]; [8],(36%)
same,Heart Failure Hospitalization Rate,[1]; [8],26.2 per 100 patient years
same,Heart Failure Hospitalization n/N,[1]; [8],385/1081
same,Primary Endpoint (%),[1]; [8],(46%)
same,Primary Endpoint Rate,[1]; [8],34.3 per 100 patient years
same,Primary Endpoint n/N,[1]; [8],510/1106
same,Urgent Outpatient Visit as 1st Primary Event (%),[1]; [8],(2%)
same,Urgent Outpatient Visit as 1st Primary Event Rate,[1]; [8],1.2 per 100 patient years
same,Urgent Outpatient Visit as 1st Primary Event n/N,[1]; [8],18/1106
same,All-cause Death ARR,[1]; [9],1.5 per 100 patient years
same,All-cause Death HR (95% CI),[1]; [9],"0.92 (0.80, 1.06);"
same,Heart Failure Hospitalization ARR,[1]; [9],5.2 per 100 patient years
same,Heart Failure Hospitalization HR (95% CI),[1]; [9],"0.84 (0.73, 0.96);"
same,Primary Endpoint ARR,[1]; [9],8.3 per 100 patient years
same,Primary Endpoint HR (95% CI),[1]; [9],"0.80 (0.71, 0.90);"
same,NT-proBNP,"[1]; Non-Advanced HF, OM group, week 24","1274 [531, pg/ml"
same,NT-proBNP (Ratio),"[1]; Non-Advanced HF, week 0 to 24, OM vs placebo",0.91
same,"KCCQ total symptom score (TSS), increase",[1]; advanced HF,1.1
same,"KCCQ total symptom score (TSS), decrease",[1]; advanced HF,1.7
same,Myocardial infarctions,"[1]; human, in vivo",3.8%
same,Serious adverse events related to ventricular tachyarrhythmias,"[1]; human, in vivo",7.9%
same,Strokes,"[1]; human, in vivo",1.6%
same,Treatment emergent serious adverse events,"[1]; human, in vivo",67%
same,Circulating cardiac troponin,[1]; in vivo,small increase
same,Creatinine,[1]; in vivo,1.29 ± 0.49 mg/dL
same,"Heart rate lowering, difference in change vs placebo",[1]; in vivo,1.9 beats/minute
same,Systolic BP,[1]; in vivo,118.4 ± 16.8 mm Hg
same,Troponin I (Ratio),[1]; in vivo,1.24
same,NT-proBNP,"[1]; more advanced HF population, result in words",significant decrease
same,"KCCQ total symptom score (TSS), increase",[1]; non-advanced HF,3.3
same,"KCCQ total symptom score (TSS), decrease",[1]; non-advanced HF,0.2
same,"Cardiovascular mortality, hazard ratio",[1]; patients with less advanced HF,1.10
same,"Absolute risk reduction, primary endpoint",[1]; patients with more advanced HF,8.3 events/100 patient-years
same,"Cardiovascular mortality, hazard ratio",[1]; patients with more advanced HF,0.88
same,"Primary endpoint, hazard ratio",[1]; patients with more advanced HF,0.80
same,"Relative risk reduction, primary endpoint",[1]; patients with more advanced HF,20%
same,"Primary endpoint, hazard ratio",[1]; patients without more advanced HF,0.99
same,NNT,"[1]; primary endpoint, patients with more advanced HF",12
same,Metabolism by CYP3A4,[2],substrate
same,Metabolism by CYP3A4,[2]; listed as OM,extensively metabolized; also recorded: metabolized in vitro
same,Metabolism by CYP2D6,[3],extensively metabolized; also recorded: metabolized in vitro
same,% Change of OM AUC (↑ = increase),[4]; [10],↑30%
same,% Change of OM Cmax (↓ = decrease),[4]; [10],↓18%
same,Mean Ratio of OM AUC (90% CI),[4]; [10],1.30 (0.93-1.82)
same,Mean Ratio of OM Cmax (90% CI),[4]; [10],0.82 (0.63-1.07)
same,% Change of OM AUC (↑ = increase),[4]; [11],↑ 21%
same,Mean Ratio of OM AUC (90% CI),[4]; [11],1.21 (1.08-1.36)
same,Mean Ratio of OM Cmax (90% CI),[4]; [11],1.08 (0.96-1.22)
same,% Change of OM Cmax (↓ = decrease),[4]; [12],↓21%
same,Mean Ratio of OM AUC (90% CI),[4]; [12],1.08 (0.97-1.22)
same,Mean Ratio of OM Cmax (90% CI),[4]; [12],0.79 (0.60-1.04)
same,Mean Ratio of OM AUC (90% CI),[4]; [13],0.95 (0.82-1.09)
same,Mean Ratio of OM Cmax (90% CI),[4]; [13],1.01 (0.95-1.07)
same,% Change of OM AUC (↑ = increase),[4]; [14],↑51%
same,Mean Ratio of OM AUC (90% CI),[4]; [14],1.51 (1.20-1.91)
same,Mean Ratio of OM Cmax (90% CI),[4]; [14],1.03 (0.76-1.40)
